Test results reported in patent publication US20230133958A1, “COMPOUNDS USEFUL IN MODULATING EGFR AND PI3K” (Mekanistic Therapeutics LLC, priority 2021, published 2023).

Experiments:
[1] = test system: HOP-92; assay: NCI COMPARE panel (SRB growth inhibition), HOP-92; assay type: cell-based; conditions: Homo sapiens; Non-Small Cell Lung Cancer, HOP-92, 48 h
Procedure: (§1) The human tumor cell lines of the cancer screening panel are grown in RPMI 1640 medium containing 5% fetal bovine serum and 2 mM L-glutamine. For a typical screening experiment, cells are inoculated into 96 well microtiter plates in 100 µL at plating densities ranging from 5,000 to 40,000 cells/well depending on the doubling time of individual cell lines. After cell inoculation, the microtiter plates are incubated at 37° C., 5% CO2, 95% air and 100% relative humidity for 24 h prior to addition of experimental drugs.
(§2) After 24 h, two plates of each cell line are fixed in situ with TCA, to represent a measurement of the cell population for each cell line at the time of drug addition (Tz). Experimental drugs are solubilized in dimethyl sulfoxide at 400-fold the desired final maximum test concentration and stored frozen prior to use. […]
(§3) Following drug addition, the plates are incubated for an additional 48 h at 37° C., 5 % CO2, 95% air, and 100% relative humidity. […] Bound stain is subsequently solubilized with 10 mM trizma base, and the absorbance is read on an automated plate reader at a wavelength of 515 nm. […] Using the seven absorbance measurements [time zero, (Tz), control growth, (C), and test growth in the presence of drug at the five concentration levels (Ti)], the percentage growth is calculated at each of the drug concentrations levels. Percentage growth inhibition is calculated as: […]

[2] = test system: OVCAR-4; assay: NCI COMPARE panel (SRB growth inhibition), OVCAR-4; assay type: cell-based; conditions: Homo sapiens; Ovarian Cancer, OVCAR-4, 48 h
Procedure: as §1, §2, §3

[3] = target: EGFR (Homo sapiens, UniProt P00533); assay: Z'-LYTE / Adapta biochemical kinase assay, EGFR; conditions: for inhibition at 0.1 µM: concentration of 100 nM/liter, read-out: Percent Inhibition of target enzymes, EGFR
Description: The Z′-LYTE® biochemical assay employs a fluorescence-based, coupled-enzyme format and is based on the differential sensitivity of phosphorylated and non-phosphorylated peptides to proteolytic cleavage. The peptide substrate is labeled with two fluorophores—one at each end—that make up a FRET pair. In the primary reaction, the kinase transfers the gamma-phosphate of ATP to a single tyrosine, serine or threonine residue in a synthetic FRET-peptide. In the secondary reaction, a site-specific protease recognizes and cleaves non-phosphorylated FRET-peptides. Phosphorylation of FRET-peptides suppresses cleavage by the Development Reagent. Cleavage disrupts FRET between the donor (i.e., coumarin) and acceptor (i.e., fluorescein) fluorophores on the FRET-peptide, whereas uncleaved, phosphorylated FRET-peptides maintain FRET. A ratiometric method, which calculates the ratio (the Emission Ratio) of donor emission to acceptor emission after excitation of the donor fluorophore at 400 nm, is used to quantitate reaction progress.
A significant benefit of this ratiometric method for quantitating reaction progress is the elimination of well-to-well variations in FRET-peptide concentration and signal intensities. As a result, the assay yields very high Z′-factor values (>0.7) at a low percent phosphorylation.
Both cleaved and uncleaved FRET-peptides contribute to the fluorescence signals and therefore to the Emission Ratio. The extent of phosphorylation of the FRET-peptide can be calculated from the Emission Ratio. The Emission Ratio will remain low if the FRET-peptide is phosphorylated (i.e., no kinase inhibition) and will be high if the FRET-peptide is non-phosphorylated (i.e., kinase inhibition).
Enzyme: The ADAPTA universal kinase assay is a homogenous, fluorescent based immunoassay for the detection of ADP. In contrast to ATP depletion assays, the ADAPTA assay is extremely sensitive to ADP formation such that a majority of the signal change occurs in the first 10-20% conversion of ATP to ADP. This makes the ADAPTA universal kinase assay ideally suited for use with low activity kinases.
The principle of the ADAPTA universal kinase assay is outlined below. The assay itself can be divided into two phases: a kinase reaction phase, and an ADP detection phase. In the kinase reaction phase, all components required for the kinase reaction are added to the well, and the reaction is allowed to incubate for 60 minutes. After the reaction, a detection solution consisting of a europium labeled anti-ADP antibody, an Alexa Fluor® 647 labeled ADP tracer, and EDTA (to stop the kinase reaction) is added to the assay well. ADP formed by the kinase reaction (in the absence of an inhibitor) will displace the Alexa Fluor® 647 labeled ADP tracer from the antibody, resulting in a decrease in the TR-FRET signal. In the presence of an inhibitor, the amount of ADP formed by the kinase reaction is reduced, and the resulting intact antibody-tracer interaction results in a high TR-FRET signal.
Test Compounds: The Test Compounds are screened in 1% DMSO (final) in the well. For 10 point titrations, 3-fold serial dilutions are conducted from the starting concentration of the customer’s choosing.
Peptide/Kinase Mixtures: All Peptide/Kinase Mixtures are diluted to a 2X working concentration in the appropriate Kinase Buffer.
ATP Solution: All ATP Solutions are diluted to a 4X working concentration in Kinase Buffer (50 mM HEPES pH 7.5, 0.01% BRIJ-35, 10 mM MgCl2,1 mM EGTA). ATP Km apparent is previously determined using a Z′-LYTE® assay.
Development Reagent Solution: The Development Reagent is diluted in Development Buffer.
Assay Protocol: Bar-coded Corning, low volume NBS, black 384-wellplate (Corning Cat. #4514) 1. 2.5 µL - 4X Test Compound or 100 nL 100X plus 2.4 µL kinase buffer. 2. 5 µL - 2X Peptide/Kinase Mixture. 3. 2.5 µL - 4X ATP Solution. 4. 30-second plate shake. 5. 60-minute Kinase Reaction incubation at room temperature. 6. 5 µL - Development Reagent Solution. 7. […]

[4] = test system: DU-145; assay: NCI COMPARE panel (SRB growth inhibition), DU-145; assay type: cell-based; conditions: Homo sapiens; Prostate Cancer, DU-145, 48 h
Procedure: as §1, §2, §3

Sequence of EGFR (P00533 25-1210): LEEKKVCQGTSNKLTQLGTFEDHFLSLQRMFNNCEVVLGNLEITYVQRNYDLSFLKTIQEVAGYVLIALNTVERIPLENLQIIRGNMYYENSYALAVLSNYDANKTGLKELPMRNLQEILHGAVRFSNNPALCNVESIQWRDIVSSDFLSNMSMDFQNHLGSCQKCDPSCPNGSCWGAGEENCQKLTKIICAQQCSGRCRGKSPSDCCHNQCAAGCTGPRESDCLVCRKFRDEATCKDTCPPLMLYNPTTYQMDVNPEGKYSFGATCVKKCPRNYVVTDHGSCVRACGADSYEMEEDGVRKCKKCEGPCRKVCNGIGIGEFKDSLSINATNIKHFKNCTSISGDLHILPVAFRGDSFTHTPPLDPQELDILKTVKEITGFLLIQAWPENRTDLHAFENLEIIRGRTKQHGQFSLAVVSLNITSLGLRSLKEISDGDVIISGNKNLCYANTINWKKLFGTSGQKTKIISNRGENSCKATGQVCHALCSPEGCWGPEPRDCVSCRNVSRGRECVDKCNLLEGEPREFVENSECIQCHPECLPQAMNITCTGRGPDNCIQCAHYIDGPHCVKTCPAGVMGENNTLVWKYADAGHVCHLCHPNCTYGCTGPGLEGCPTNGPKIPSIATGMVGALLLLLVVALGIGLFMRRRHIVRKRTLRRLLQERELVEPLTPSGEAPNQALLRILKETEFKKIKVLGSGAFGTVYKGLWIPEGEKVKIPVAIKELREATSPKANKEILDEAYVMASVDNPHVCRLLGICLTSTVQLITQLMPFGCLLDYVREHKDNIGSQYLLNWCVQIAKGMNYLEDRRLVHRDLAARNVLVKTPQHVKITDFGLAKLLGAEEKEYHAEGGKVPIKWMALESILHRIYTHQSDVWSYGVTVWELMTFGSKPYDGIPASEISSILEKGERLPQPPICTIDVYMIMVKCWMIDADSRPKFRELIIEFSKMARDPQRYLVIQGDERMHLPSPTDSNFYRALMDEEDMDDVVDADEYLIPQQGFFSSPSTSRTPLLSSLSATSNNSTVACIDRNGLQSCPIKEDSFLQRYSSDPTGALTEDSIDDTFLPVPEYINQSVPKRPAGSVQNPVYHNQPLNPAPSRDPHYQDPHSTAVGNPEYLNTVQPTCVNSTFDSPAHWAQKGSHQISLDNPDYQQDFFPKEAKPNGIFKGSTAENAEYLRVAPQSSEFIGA

## CS(=O)(=O)Nc1cc(-c2ccc3ncnc(Nc4cccc(Cl)c4F)c3c2)cnc1Cl [Compound 6, N-[2-chloro-5-[4-(3-chloro-2-fluoro-anilino)quinazolin-6-yl]-3-pyridyl] methanesulfonamide]
[1]
  GI50: ≤ 75 nM
[2]
  GI50: > 250 nM
[3]; EGFR
  IC50: ≤ 2 nM
[3]
  inhibition at 0.1 µM: > 90%
[4]
  GI50: 125 to 250 nM

## CS(=O)(=O)Nc1cc(-c2ccc3ncc(C#N)c(Nc4cccc(Cl)c4F)c3c2)cnc1Cl [Compound 10, N-[2-chloro-5-[4-(3-chloro-2-fluoro-anilino)-3-cyano-6-quinolyl]-3-pyridyl]methanesulfonamide]
[1]
  GI50: ≤ 75 nM
[2]
  GI50: > 250 nM
[3]
  inhibition at 0.1 µM: > 90%
[4]
  GI50: 125 to 250 nM
